Laboratory results from patent US20060211740A1, “Novel compounds” (priority 2003, published 2006).
Values joined by “and” are separate entries in the source; they are usually repeats but may differ in a detail not shown here. Equal values may be shown once. Where a name gives a salt, the structure may show the parent alone.

Key:
[1] = target: Asp-2 (Homo sapiens, UniProt P56817); experiment: Asp-2 Inhibitory Assay; format: biochemical; settings: FAM-[SEVNLDAEFK]-TAMRA substrate, pH 4.5, 1 h at room temperature, fluorescence; read-out: inhibition (Asp2), Assay (I)
Chain of Asp-2 (P56817 46-501): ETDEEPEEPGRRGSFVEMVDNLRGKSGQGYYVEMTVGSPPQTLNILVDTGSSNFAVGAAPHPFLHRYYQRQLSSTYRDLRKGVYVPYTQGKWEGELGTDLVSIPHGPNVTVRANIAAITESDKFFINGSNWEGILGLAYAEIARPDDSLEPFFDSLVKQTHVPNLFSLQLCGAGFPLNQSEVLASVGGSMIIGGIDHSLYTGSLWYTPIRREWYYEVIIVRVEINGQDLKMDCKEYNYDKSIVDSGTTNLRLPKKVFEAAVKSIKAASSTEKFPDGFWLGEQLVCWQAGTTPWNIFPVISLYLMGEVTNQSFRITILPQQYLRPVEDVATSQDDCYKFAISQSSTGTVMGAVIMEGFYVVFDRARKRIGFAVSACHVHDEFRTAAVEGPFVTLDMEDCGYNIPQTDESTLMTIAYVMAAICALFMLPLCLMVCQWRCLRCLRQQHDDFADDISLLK
Experimental: (I) Asp-2 Inhibitory Assay
(§1) For each compound being assayed, in a 384 well plate, is added:—
(§2) a) 1 μl of a DMSO solution of the test compound (IC50 curve uses ten 1 in 2 serial dilutions from 500 μM).
This is prepared by diluting 2 ml of a 2 mM DMSO solution of the substrate into 400 ml of buffer (100 mM Sodium acetate pH=4.5, 1 l Milli-Q water, 0.06% Triton X-100 (0.5 ml/l), pH adjusted to 4.5 using glacial acetic acid). Aminomethyl fluorescein (FAM) and tetramethyl rhodamine (TAMRA) are fluorescent molecules which co-operate to emit fluorescence at 535 nm upon cleavage of the […] peptide.
c) 10 μl enzyme solution. This is prepared by diluting 16 ml of a 500 nM enzyme solution into 384 ml of buffer (prepared as above).
(§3) Blank wells (enzyme solution replaced by buffer) are included as controls on each plate. Wells are incubated for 1 h at room temperature and fluorescence read using a Tecan Ultra Fluorimeter/Spectrophotometer (485 nm excitation, 535 nm emission).

[2] = target: Cathepsin D (Homo sapiens, UniProt P07339); experiment: Cathepsin D Inhibitory Assay; format: biochemical; settings: FAM-[SEVNLDAEFK]-TAMRA substrate, pH 4.5, 1 h at room temperature, fluorescence; read-out: inhibition (CatD), Assay (II)
Chain of Cathepsin D (P07339 65-412, species assumed): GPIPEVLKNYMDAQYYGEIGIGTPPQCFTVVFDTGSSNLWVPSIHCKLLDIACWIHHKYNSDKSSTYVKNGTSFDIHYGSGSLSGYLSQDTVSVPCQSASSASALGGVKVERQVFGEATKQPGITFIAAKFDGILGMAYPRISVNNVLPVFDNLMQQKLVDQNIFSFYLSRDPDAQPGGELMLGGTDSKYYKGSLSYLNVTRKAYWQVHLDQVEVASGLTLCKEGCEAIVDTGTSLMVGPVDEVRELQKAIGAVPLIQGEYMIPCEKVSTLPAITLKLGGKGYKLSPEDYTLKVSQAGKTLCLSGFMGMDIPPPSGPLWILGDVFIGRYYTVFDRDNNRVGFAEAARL
Experimental: (II) Cathepsin D Inhibitory Assay
as §1, §2
This is prepared by diluting 2 ml of a 2 mM DMSO solution of the substrate into 400 ml of buffer (100 mM Sodium acetate pH=4.5, 1 l Milli-Q water, 0.06% Triton X-100 (0.5 ml/l), pH adjusted to 4.5 using glacial acetic add).
c) 10 μl enzyme solution. This is prepared by diluting 1.6 ml of a 200 unit/ml (in 10 mM HCl) enzyme solution into 398.4 ml of buffer (prepared as above).
as §3

| SMILES | IC50 [1] | IC50 [2] |
| --- | --- | --- |
| CS(=O)(=O)N(c1cccc(C#N)c1)c1cccc(C(=O)N[C@@H](Cc2ccccc2)[C@H](O)CNCc2cccc(C(F)(F)F)c2)c1 [Example E17, N-[(1S,2R)-1-Benzyl-2-hydroxy-3-(3-trifluoromethyl-benzylamino)-propyl]-[(3-cyano-phenyl)-methanesulfonyl-amino]-benzamide] | 1 to 100 nM | 200 to 2500 nM |
| C[C@H](NC[C@@H](O)[C@H](Cc1ccccc1)NC(=O)c1cc(N2CCCC2=O)cc(N(c2ccccc2)S(C)(=O)=O)c1)C(=O)NC1CCCCC1 [Example E41] | 1 to 100 nM and 1 to 10 nM | 200 to 2500 nM and 400 to 1000 nM |
| C#Cc1cc(C(=O)N[C@@H](Cc2ccccc2)[C@H](O)CNCc2cccc(C(F)(F)F)c2)cc(N(c2ccccc2)S(C)(=O)=O)c1 [Example E46, N-[(1S,2R)-1-Benzyl-2-hydroxy-3-(3-trifluoromethyl-benzylamino)-propyl]-ethynyl-(methanesulfonyl-phenyl-amino)-benzamide] | 1 to 100 nM | 200 to 2500 nM |
| CS(=O)(=O)N(c1ccccc1)c1cc(C(=O)N[C@@H](Cc2ccccc2)[C@H](O)CNCc2cccc(OC(F)(F)F)c2)cc(N2CCCC2=O)c1 [Example E55, formate salt] | 1 to 100 nM and 1 to 10 nM | 200 to 2500 nM and 400 to 1000 nM |
| CS(=O)(=O)N(c1ccccc1)c1cccc(C(=O)N[C@@H](Cc2ccccc2)[C@H](O)CNCc2cccc(C(F)(F)F)c2)c1F [Example E56, formate salt] | 1 to 100 nM | 200 to 2500 nM |
| CCSc1cc(C(=O)N[C@@H](Cc2ccccc2)[C@H](O)CNCc2cccc(C(F)(F)F)c2)cc(N(c2ccccc2)S(C)(=O)=O)c1 [Example E60] | 1 to 100 nM and 1 to 10 nM | 200 to 2500 nM and 400 to 1000 nM |
| CS(=O)(=O)N(c1cccc(C#N)c1)c1cc(C(=O)N[C@@H](Cc2ccccc2)[C@H](O)CNCc2cccc(C(F)(F)F)c2)cc(N2CCCC2=O)c1 [Example E77, formate salt] | 1 to 100 nM and 1 to 10 nM | 200 to 2500 nM and 400 to 1000 nM |
| C=C(C)c1cc(C(=O)N[C@@H](Cc2ccccc2)[C@H](O)CNCc2cccc(C(F)(F)F)c2)cc(N(c2ccccc2)S(C)(=O)=O)c1 [Example E83, N-[(1S,2R)-Benzyl-hydroxy-3-(3-trifluoromethyl-benzylamino)-propyl]-3-isopropenyl-5-(methanesulfonyl-phenyl-amino)-benzamide] | 1 to 100 nM | 200 to 2500 nM |
